{"source": "patent US20240066087A1", "about": "“SUTHERLANDIA EXTRACT AND THE USE THEREOF IN THE MANUFACTURE OF A MEDICAMENT” (ACUPHARM INTERNATIONAL PROPRIETARY LIMITED, priority 2020, published 2024)"}
{"tested_on": "cultured tissue from needle biopsy, Breast DCIS papillary neoplasm", "assay": "dose response study with cumulative cell death on cultured patient biopsy tissue (patient 19055)", "type": "cell-based, human", "details": "in vitro cultured biopsy sample, patient 19055, Breast DCIS papillary neoplasm", "procedure": "Comparative studies were performed using Sutherlandia leaf extract in water (referred to as ACPJL35), Sutherlandia leaf extract in 50% ethanol and water solution (referred to as ACPJL28), and Sutherlandia leaf extract in 90% ethanol and water solution (referred to as ACPJL07). These extracts were compared to a number of known botanical isolates with anti-cancer activity, as well as a number of known anti-cancer drugs, using a dose response design with cumulative cell death as the dependent variable. These studies were conducted on in vitro samples of cultured tissue, taken as biopsy samples from patients as part of a standard culture and testing process done in order to optimise treatment.\nPatient from whom sample was obtained was a person presenting with a diagnosis of Breast DCIS papillary neoplasm. The sample was obtained via needle biopsy, before being cultured."}
{"smiles": "COc1cc2c(Oc3ccc4[nH]c(C)cc4c3F)ncnc2cc1OCCCN1CCCC1", "note": "[Cediranib]", "efficacy assessment from dose response (dose-CR curve), cumulative cell death as dependent variable": "having potential benefit"}
{"smiles": "Nc1nc(Cl)nc2c1ncn2[C@@H]1O[C@H](CO)[C@@H](O)[C@@H]1F", "note": "[Clofarabine]", "efficacy assessment from dose response (dose-CR curve), cumulative cell death as dependent variable": "having potential benefit"}
{"smiles": "CC(=O)O[C@@]12CO[C@@H]1C[C@H](O)[C@@]1(C)C(=O)[C@H](O)C3=C(C)[C@@H](OC(=O)[C@H](O)[C@@H](NC(=O)OC(C)(C)C)c4ccccc4)C[C@@](O)([C@@H](OC(=O)c4ccccc4)[C@H]21)C3(C)C", "note": "[Docetaxel]", "efficacy assessment from dose response (dose-CR curve), cumulative cell death as dependent variable": "having potential benefit"}
{"smiles": "COc1cc2ncnc(Nc3ccc(F)c(Cl)c3)c2cc1OCCCN1CCOCC1", "note": "[Gefitinib]", "efficacy assessment from dose response (dose-CR curve), cumulative cell death as dependent variable": "having potential benefit"}
{"smiles": "O=C1c2c(O)ccc(O)c2C(=O)c2c(NCCNCCO)ccc(NCCNCCO)c21", "note": "[Mitoxantrone]", "efficacy assessment from dose response (dose-CR curve), cumulative cell death as dependent variable": "having potential benefit"}
{"smiles": "COC(=O)c1ccc2c(c1)NC(=O)/C2=C(\\Nc1ccc(N(C)C(=O)CN2CCN(C)CC2)cc1)c1ccccc1", "note": "[Nintedanib]", "efficacy assessment from dose response (dose-CR curve), cumulative cell death as dependent variable": "good efficacy and a positive dose response curve"}
{"smiles": "CC(=O)O[C@H]1C(=O)[C@@]2(C)[C@H]([C@H](OC(=O)c3ccccc3)[C@]3(O)C[C@H](OC(=O)[C@H](O)[C@@H](NC(=O)c4ccccc4)c4ccccc4)C(C)=C1C3(C)C)[C@]1(OC(C)=O)CO[C@@H]1C[C@@H]2O", "note": "[Paclitaxel]", "efficacy assessment from dose response (dose-CR curve), cumulative cell death as dependent variable": "having potential benefit"}
{"smiles": "CC[C@]1(O)C[C@H]2CN(CCc3c([nH]c4ccccc34)[C@@](C(=O)OC)(c3cc4c(cc3OC)N(C=O)[C@H]3[C@@](O)(C(=O)OC)[C@H](OC(C)=O)[C@]5(CC)C=CCN6CC[C@]43[C@@H]65)C2)C1", "note": "[Vincristine]", "efficacy assessment from dose response (dose-CR curve), cumulative cell death as dependent variable": "having potential benefit"}
{"smiles": "CCC1=C[C@@H]2CN(C1)Cc1c([nH]c3ccccc13)[C@@](C(=O)OC)(c1cc3c(cc1OC)N(C)[C@H]1[C@@](O)(C(=O)OC)[C@H](OC(C)=O)[C@]4(CC)C=CCN5CC[C@]31[C@@H]54)C2", "note": "[Vinorelbine]", "efficacy assessment from dose response (dose-CR curve), cumulative cell death as dependent variable": "having potential benefit"}
{"smiles": "O=C(CCCCCCC(=O)Nc1ccccc1)NO", "note": "[Vorinostat]", "efficacy assessment from dose response (dose-CR curve), cumulative cell death as dependent variable": "having potential benefit"}
